Laboratory results: patent publication US6716635B2, “Method for identifying regulators of protein-advanced glycation end product (protein-AGE) formation” (University of Kentucky Research Foundation, priority 2000, dated 2004)

What was measured:
[1] = tested on: CF-3 (human dermal fibroblasts); test: protection against α-dicarbonyl toxicity in fibroblasts, cell count; assay type: cell-based; conditions: 72 hours
Protocol: (§1) Continuously cultured cell lines “He-Cat” (human epidermal keratinocytes), and “CF-3” (human dermal fibroblasts), were cultured under standard conditions, divided biweekly into DMEM containing 10% fetal bovine serum, and were kept in a humidified atmosphere containing 5% CO2 at 37° C. In order to divide the cells, 5% trypsin was used on the keratinocytes, and 1% trypsin was used on the fibroblasts.
(§2) Keratinocytes were seeded at 2×10^4 cells/well, and fibroblasts at 4×10^4 cells/well, using 6 well dishes. The cells were allowed to attach to the plate overnight. Either D-penicillamine or aminoguanidine (1 mM each) was added to the plates 15 minutes prior to addition of glyoxal or methylglyoxal. The α-dicarbonyl was left for 72 hours. Varying concentrations of the α-dicarbonyl were used. Cells were counted with a Coulter counter after 72 hours of stress. Cultures were also run where the glyoxal or methylglyoxal was used without the scavenger. L-alanine was used as a negative control as it was not expected to have protective effect.

[2] = tested on: He-Cat (human epidermal keratinocytes); test: protection against α-dicarbonyl toxicity in keratinocytes, cell count; assay type: cell-based; conditions: 72 hours
Protocol: as §1, §2

[3] = tested on: histone H1 (glycation by ADP-ribose); test: AGE-fluorescence screening of glycation inhibitors, histone H1 + ADP-ribose, 96 well microtiter plates; assay type: biochemical, calf; conditions: for AGE-fluorescence (day 5): 5 days incubation; for % inhibition: AGE-fluorescence day 5; for AGE-fluorescence (day 0): value (spread); for suppression of AGE-fluorescence, primary screen outcome: test compound 5 mM or limit of solubility, pH 7.4, 37° C.; for inhibition of AGE-fluorescence, in words: 1 to 10 mM, 5 days
Protocol: A 96-well, microtiter plate was used to carry out 48 reactions in duplicate. […] A second pair of wells contains the reactants and the known glycation inhibitor aminoguanidine, and functions as a positive control. Histone H1 is commercially available, and can be prepared following the procedures set out in Johns, et al., Biochem J. 92:55-59(1964), which is incorporated by reference herein.
The reaction system is 50 mM potassium phosphate buffer, at pH 7.4 to which 1.5 mg/ml histone H1 and 1.0 mM ADP-ribose were added. Reaction volume was 300 ul. AGE-fluorescence was measured over time, with incubation at 37° C., at 355 nm (ex) and 405 nm (em). Upon comparison to the control, a test compound was deemed potentially positive if AGE-fluorescence was suppressed.
The histone H1 (1.5 mg/ml) was combined with 1 mM ADP-ribose, in […] KH2PO4 buffer (pH 7.4, 37° C., 0.015% NaN3 added, to inhibit microbial growth). This reaction mixture was added, to 96 well microtiter plates. Test compounds were added to the reaction mixture, at concentrations ranging from 1 to 10 mM, in reaction volumes of 300 ul. Texts were run in duplicate.
Accumulated protein damage was determined by measuring AGE-fluorescence, at wavelengths (λex=370 nm; λ em=440 nm. The fluorescence is suppressed in the presence of compounds with inhibitory activity. Assays were read on a conventional microtiter plate, with a filter setting that approached the above conditions (λ ex: 355 nm, λ […]: 405 nm), which is in the range of the broad excitation/emission maxima of AGE compounds.
The fluorescence was measured at the beginning, and after 5 days of incubation.
The known glycation inhibitor aminoguanidine was used as a control.

[4] = tested on: histone H1 (carbonylation); test: histone H1 carbonylation by reducing sugars, and interference by compounds; assay type: biochemical; conditions: for amount of carbonylation / carbonylation of histone H1, in words: 1 mM sugar, pH 7.4, 7 days
Protocol: Both protein cross-linking and protein carbonylation are well established indicia of protein glycation. See Schacter, et al., Free Radic Biol Med. 17:429-437 (1994), incorporated by reference. In brief, following the assays described infra, formation of protein cross-linking was measured on 12% SDS-PAGE, followed by Coomassie and silver staining. Cross-linking was detectable with a high degree of sensitivity, when the reaction between ADP-ribose and histone H1 was carried out at pH 9.0. […] In FIG. 8, the abbreviations “M,” “D”, and “O” represent “monomer,” “dimer” and “oligomer,” respectively. Silver staining is the preferred way of determining the cross linking. Protein carbonlyation was determined via Western blotting. Specifically, AGE-BSA, which had been prepared by incubating BSA with 1.66M glucose, at pH 7.4 for 90 days at 37° C., was recognized after being derivatized with 2.4 dinitrophenlyhydrazine (“DNP”), when tested with antibodies specific for protein bound, DNP epitopes.
A series of experiments were carried out to compare different reducing sugars as glycation agents. In addition to ADP-ribose, ADP-glucose, D-ribose and D-glucose were tested. Briefly, histone H1 was combined with 1 mM of each sugar, and the mixture was incubated at pH 7.4. After 7 days of incubation, reaction aliquots were analyzed on 12% SDS-PACE gels, with silver staining. Results are presented in FIGS. 19A and B. In each of these, lane 1 is a control, with no sugar added, while lanes 2-5 show results using D-glucose, D-ribose, ADP-glucose, and ADP-ribose, respectively. […] The amount of carbonylation caused by ADP-ribose (0.82 mole/mole histone H1), and D-ribose (0.06 mole/mole histone H1) correlated with immunostaining.
In order to determine if the carbonylation of histone H1 by ADP-ribose involved an oxidative pathway, several compounds, known to interfere with glycoxidation of proteins by D-glucose were tested to determine if they interfered with this action by ADP-ribose. The compounds tested included 5 mM DTPA under argon, 5 mM aminoguanidine, 5 mM N^α acetyl L-cysteine, 5 mM mannitol, and 100 units/ml catalase.

[5] = compound 1 mM added 15 minutes prior to methylglyoxal

Row | Compound | AGE-fluorescence (day 5) ([3]; compound 1 mM) | % inhibition ([3]; compound 1 mM) | AGE-fluorescence (day 0) ([3]; compound 1 mM) | AGE-fluorescence (day 5) ([3]; compound 5 mM) | % inhibition ([3]; compound 5 mM) | AGE-fluorescence (day 0) ([3]; compound 5 mM) | AGE-fluorescence (day 5) ([3]; compound 10 mM) | % inhibition ([3]; compound 10 mM) | AGE-fluorescence (day 0) ([3]; compound 10 mM) | other results
1 | CC(=O)C=O [methylglyoxal] |  |  |  |  |  |  |  |  |  | concentration completely inhibitory to growth ([1]; no scavenger): 600 µM; concentration completely inhibitory to growth ([2]; no scavenger): 600 µM
2 | COC(=O)[C@@H](N)CS [L-Cys-OMe, L-cysteine methylester] | 15 (0.1) | 31% | 1.2 (0.1) | 12 (0.8) | 46% | 1.3 (0.1) | 9.0 (0.2) | 61% | 1.2 (0.1) | suppression of AGE-fluorescence, primary screen outcome [3]: potential inhibitor
3 | OC[C@@H](O)[C@@H](O)[C@H](O)[C@H](O)CO [mannitol] |  |  |  |  |  |  |  |  |  | interference with carbonylation of histone H1 by ADP-ribose ([4]; compound 5 mM): none of these interfered with the carbonylation
4 | NC(CCS)C(=O)O (racemic) [D,L-Homocysteine] | 16 (1.1) | 26% | 1.3 (0.0) | 22 (0.1) | 0% | 1.2 (0.2) | 27 (1.7) | 0% | 1.1 (0.1) | inhibition of AGE-fluorescence, in words [3]: increased AGE-fluorescence
5 | catalase |  |  |  |  |  |  |  |  |  | interference with carbonylation of histone H1 by ADP-ribose ([4]; 100 units/ml): none of these interfered with the carbonylation
6 | N[C@@H](CS)C(=O)O [L-Cys, L-cysteine] | 14 (0.3) | 36% | 1.2 (0.1) | 11 (0.2) | 50% | 1.1 (0.1) | 9.0 (0.2) | 61% | 1.2 (0.1) | suppression of AGE-fluorescence, primary screen outcome [3]: potential inhibitor
7 | N[C@@H](CS)C(=O)NCC(=O)O [L-Cys-Gly, NH2-L-cys-gly-COOH] | 17 | 20% | 1.3 (0.3) | 26 (0.4) | 0% | 1.2 (0.2) | 40 (0.0) | 0% | 1.2 (0.1) | inhibition of AGE-fluorescence, in words [3]: increased AGE-fluorescence
8 | O=C(O)CN(CCN(CC(=O)O)CC(=O)O)CCN(CC(=O)O)CC(=O)O [DTPA] |  |  |  |  |  |  |  |  |  | interference with carbonylation of histone H1 by ADP-ribose ([4]; 5 mM under argon): none of these interfered with the carbonylation
9 | Nc1ncnc2c1ncn2[C@@H]1O[C@H](COP(=O)(O)OP(=O)(O)OC[C@H]2OC(O)[C@H](O)[C@@H]2O)[C@@H](O)[C@H]1O (stereo partly shown) [ADP-ribose] |  |  |  |  |  |  |  |  |  | amount of carbonylation [4]: 0.82 mole/mole histone H1; carbonylation of histone H1, in words [4]: extensive carbonylation
10 | O=C[C@H](O)[C@@H](O)[C@H](O)[C@H](O)CO [D-glucose] |  |  |  |  |  |  |  |  |  | carbonylation of histone H1, in words [4]: Neither D-glucose nor ADP-glucose caused significant carbonylation
11 | NCCC(=O)O [beta-alanine] |  |  |  |  |  |  |  |  |  | suppression of AGE-fluorescence, primary screen outcome [3]: true negatives
12 | Nc1ncnc2c1ncn2[C@@H]1O[C@H](COP(=O)(O)OP(=O)(O)O[C@H]2O[C@H](CO)[C@@H](O)[C@H](O)[C@H]2O)[C@@H](O)[C@H]1O [ADP-glucose] |  |  |  |  |  |  |  |  |  | carbonylation of histone H1, in words [4]: Neither D-glucose nor ADP-glucose caused significant carbonylation
13 | C[C@H](N)C(=O)O [L-alanine] |  |  |  |  |  |  |  |  |  | protection against methylglyoxal induced growth inhibition [1, 5]: no protective effect; protection against methylglyoxal induced growth inhibition [2, 5]: no protective effect
14 | CC(=O)N[C@@H](CS)C(=O)O [NAC, N α-acetyl-L-cysteine, reference compound] | 11 (0.6) | 51% | 1.2 (0.2) | 10 (0.4) | 55% | 1.0 (0.1) | 9.4 (0.6) | 58% | 1.1 (0.1) | interference with carbonylation of histone H1 by ADP-ribose ([4]; compound 5 mM): none of these interfered with the carbonylation; % inhibition ([3]; compound 10 mM, listed as N α-acetyl-L-cysteine): 61%
15 | N[C@@H](CCC(=O)N[C@@H](CS)C(=O)NCC(=O)O)C(=O)O [GSH, glutathione] | 19 (0.3) | 10% | 1.3 (0.0) | 17 (0.3) | 20% | 1.1 (0.3) | 14 (0.5) | 35% | 1.1 (0.0) | 
16 | O=C[C@H](O)[C@H](O)[C@H](O)CO [D-ribose] |  |  |  |  |  |  |  |  |  | amount of carbonylation [4]: 0.06 mole/mole histone H1; carbonylation of histone H1, in words [4]: a lesser amount
17 | C[N+](C)(C)[C@@H](Cc1c[nH]c(=S)[nH]1)C(=O)[O-] [L-Ergothioneine] | 13 (0.0) | 40% | 1.0 (0.1) | 9.3 (0.2) | 59% | 1.2 (0.0) | 7.4 (0.1) | 69% | 1.2 (0.1) | inhibition of AGE-fluorescence, in words [3]: somewhat better inhibition
18 | NCCS [Cysteamine] | 10 (0.6) | 55% | 1.0 (0.1) | 9.0 (0.7) | 60% | 1.1 (0.1) | 6.0 (0.3) | 76% | 1.2 (0.2) | inhibition of AGE-fluorescence, in words [3]: somewhat better inhibition
19 | O=C1CC(=O)NC(=S)N1 [2-Thiobarbituric acid] | 12 (0.4) | 45% | 1.1 (0.1) | 5.5 (0.4) | 78% | 1.2 (0.1) | 2.3 (0.0) | 95% | 1.3 (0.1) | 
